From PubChem BioAssay (NCI)
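Exposure lasted 48 hours, with cells grown in 96-well plates and compounds tested at five concentrations. Abbreviation: GI50, concentration required for 50% inhibition of growth. TGI denotes the concentration required for complete inhibition of growth.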

Experiments:
Test in all cases: inhibition of tumour cell growth, NCI panel, 48 h; in the data active means GI50 below about 0.43 µM; inactive means the rest
SK-MEL-2 melanoma = tested on: SK-MEL-2 melanoma
DU-145 prostate = tested on: DU-145 prostate
MDA-MB-435 = tested on: MDA-MB-435
A549 NSCLC = tested on: A549 NSCLC
SN12C renal = tested on: SN12C renal
SF-295 CNS = tested on: SF-295 CNS
OVCAR-8 ovarian = tested on: OVCAR-8 ovarian
M14 melanoma = tested on: M14 melanoma
TK-10 renal = tested on: TK-10 renal
COLO 205 colon = tested on: COLO 205 colon
MOLT-4 leukemia = tested on: MOLT-4 leukemia
A498 renal = tested on: A498 renal
SNB-19 CNS = tested on: SNB-19 CNS
SK-MEL-5 melanoma = tested on: SK-MEL-5 melanoma
HCC-2998 colon = tested on: HCC-2998 colon
786-0 renal = tested on: 786-0 renal
OVCAR-3 ovarian = tested on: OVCAR-3 ovarian
UO-31 renal = tested on: UO-31 renal
CAKI-1 renal = tested on: CAKI-1 renal
BT-549 breast = tested on: BT-549 breast
SR leukemia = tested on: SR leukemia
RXF 393 renal = tested on: RXF 393 renal
MALME-3M melanoma = tested on: MALME-3M melanoma
HOP-92 NSCLC = tested on: HOP-92 NSCLC
NCI-H522 lung = tested on: NCI-H522 lung
OVCAR-5 ovarian = tested on: OVCAR-5 ovarian
HCT-116 colon = tested on: HCT-116 colon
MCF7 breast = tested on: MCF7 breast
OVCAR-4 ovarian = tested on: OVCAR-4 ovarian

CC(OC(=O)N(N(CCCl)S(C)(=O)=O)S(C)(=O)=O)c1ccc([N+](=O)[O-])cc1 (stereo not drawn)
43.3 µM: TGI (A498 renal)
inactive: GI50 (SK-MEL-2 melanoma) > 100 µM | GI50 (DU-145 prostate) 24 µM | GI50 (MDA-MB-435) 99.4 µM | GI50 (A549 NSCLC) > 58.3 µM | GI50 (SN12C renal) 34.9 µM | GI50 (SF-295 CNS) 34.5 µM | GI50 (OVCAR-8 ovarian) > 100 µM | GI50 (M14 melanoma) 49.4 µM | GI50 (TK-10 renal) > 66.2 µM | GI50 (COLO 205 colon) 77.6 µM | GI50 (MOLT-4 leukemia) 43.1 µM | GI50 (A498 renal) 1.7 µM | GI50 (SNB-19 CNS) > 88.9 µM | GI50 (SK-MEL-5 melanoma) 16.1 µM | GI50 (HCC-2998 colon) 56 µM | GI50 (786-0 renal) 44.7 µM | GI50 (OVCAR-3 ovarian) 42.5 µM | GI50 (UO-31 renal) > 100 µM | GI50 (CAKI-1 renal) 64.3 µM | GI50 (BT-549 breast) 33.8 µM | GI50 (SR leukemia) 26.7 µM | GI50 (RXF 393 renal) > 100 µM | GI50 (MALME-3M melanoma) 41.5 µM | GI50 (HOP-92 NSCLC) > 100 µM | GI50 (NCI-H522 lung) 51.4 µM | GI50 (OVCAR-5 ovarian) > 100 µM | GI50 (HCT-116 colon) > 66 µM | GI50 (MCF7 breast) 58 µM | GI50 (OVCAR-4 ovarian) 73.5 µM
44.7 µM: TGI (SK-MEL-5 melanoma)
> 100 µM: TGI (SK-MEL-2 melanoma) | TGI (DU-145 prostate) | TGI (MDA-MB-435) | TGI (A549 NSCLC) | TGI (SN12C renal) | TGI (SF-295 CNS) | TGI (OVCAR-8 ovarian) | TGI (M14 melanoma) | TGI (TK-10 renal) | TGI (COLO 205 colon) | TGI (MOLT-4 leukemia) | TGI (SNB-19 CNS) | TGI (HCC-2998 colon) | TGI (786-0 renal) | TGI (OVCAR-3 ovarian) | TGI (UO-31 renal) | TGI (CAKI-1 renal) | TGI (BT-549 breast) | TGI (SR leukemia) | TGI (RXF 393 renal) | TGI (MALME-3M melanoma) | TGI (HOP-92 NSCLC) | TGI (NCI-H522 lung) | TGI (OVCAR-5 ovarian) | TGI (HCT-116 colon) | TGI (MCF7 breast) | TGI (OVCAR-4 ovarian)
